This is an account of results in patent US20180282279A1, “Pantothenamide Analogues” (Radboud Universitair Medisch Centrum, priority 2014, published 2018).

In brackets after ≈: the same amount, converted by molar mass. Like-named read-outs stand apart in the source and are kept apart here.

The test system of test [1] is S. aureus (SA), S. epidermidis (SE), S. pyogenes (SP), S. pneumoniae (SPn). The test is described as follows: MIC for most sensitive bacterial species (panel). Format: cell-based. The settings on record: Table 1, no species named, read-out: MIC (μg/ml) for most sensitive bacterial species. The method, then:
Strains of Escherichia coli, Staphylococcus aureus and Staphylococcus epidermidis, were grown overnight in 1% Bacto tryptone medium (BD, Sparks, Md.). Streptococcus pyogenes was grown overnight in Bacto Todd Hewitt Broth medium (BD, Sparks, Md.). Cultures were then diluted 1:1,000 in fresh assay medium supplemented with or without 20% fetal bovine serum (FBS; HyClone, Celbio, Logan, Utah) and added to 96-well sterile enzyme-linked immunosorbent assay (ELISA) plates (100 μl per well). The compounds to be tested were diluted in the medium without serum and added to the bacteria (100 μl per well). Plates were incubated at 37° C., and bacterial growth was monitored over time by reading the optical density at 490 nm using a microplate reader (model 450; Bio-Rad Laboratories Inc., Hercules, Calif.). Streptococcus pneumoniae strains were grown to mid-log phase (OD620 of 0.3) and stored in 15% glycerol at […] till further use. Minimal inhibitory concentration (MIC) of antibiotics was determined according to standard procedures. Bacteria were diluted 10-fold in Mueller-Hinton medium (BD, Sparks, Md.) and added to 96-well sterile ELISA plates (150 μl per well). The compounds to be tested were diluted in the medium without serum and added to the bacteria (150 μl per well). Plates were incubated overnight at 37° C. in 5% CO2. The MIC was defined as the lowest concentration of compound at which no growth was visible with the naked eye.

For test [2], the system named is transgenic P. falciparum NF54 strain that expresses a luciferase reporter gene, in Anopheles stephensi mosquitoes. The test is described as follows: Standard Membrane Feeding Assay (SMFA), luciferase reporter. Format: in vivo, Plasmodium falciparum. The settings on record: for IC50: indirect mode of the SMFA. As for the experimental part:
To assess the effect of a reduction in gametocyte viability and or capacity to form a gamete on actual transmission of the parasites, Standard Membrane Feeding Assays (SMFA) were performed using a transgenic P. falciparum NF54 strain that expresses a luciferase reporter gene from a hsp70 promoter. Parasite cultures showing ˜3% mature gametocytes were checked for the ability to show exflagellation after addition of xanthurenic acid to a final concentration of 40 μM. Infectivity of cultures showing positive exflagellation was tested in a ‘prefeed’ experiment as described previously (Antimicrob Agents Chemother, 2012. 56(7): p. 3544-8). Cultures showing development of retorts and ookinetes in the mosquito midgut were selected for testing of compounds. In the indirect mode of the assay, gametocytes were pre-incubated with compound prior to mosquito feeding. To this end, 40 μl compound diluted in parasite culture medium was added to 360 μl of parasite culture and incubated for 24 hrs at 37° C. in Eppendorf tubes (0.1% DMSO final concentration). Hereafter, 300 μl was added to 180 μl of packed red blood cells and centrifuged for 20 seconds at 10,000 g. After carefully aspirating the supernatant, 200 μl of human serum type A was added to the pellet. Finally, 300 μl was immediately injected into an individual membrane-covered minifeeder, where 50 Anopheles stephensi mosquitoes of 1-to-5-days old were allowed to feed for 10 minutes and non-fed mosquitoes were removed from the cage. Eight days after feeding, 20 mosquitoes were sacrificed and parasite luciferase activity was measured as described previously (Stone, J Infect Dis. 2014 in press). For the direct SMFA, 300 μl parasite culture was added to 180 μl red blood cells, centrifuged for 20 seconds at 10,000 g and the supernatant was carefully aspirated. Meanwhile, 10 μl of compound diluted in incomplete medium was added to 490 μl human serum type A (0.1% DMSO final). 200 μl of this compound containing human serum was added to the pellet, which was subsequently used for the SMFA as described above. For dose response analyses, compounds were diluted in DMSO with subsequent dilution in culture medium to a final DMSO concentration of 0.1%. Controls included vehicle (0.1% DMSO) and DHA at its approximate IC90 (10 μM). Data were analyzed by logistic regression using the formula: Y=Bottom+(Top−Bottom)/(1+10̂((Log IC50−X)*HillSlope)) and a least squares method to find the best fit.
For orientation: In a reporter assay the amount or activity of a reporter protein is the signal.

A further test has as its system Staphylococcus aureus. The test is described as follows: Bacterial growth assay and MIC determination, S. aureus. Format: cell-based. The settings on record: Staphylococcus aureus.
A further test concerns Streptococcus pyogenes. The test is described as follows: Bacterial growth assay and MIC determination, S. pyogenes. Format: cell-based. The conditions noted are these: Streptococcus pyogenes; S. pyogenes, serum −; read-out: MIC. In short, it runs like this:
(§1)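 Growth assays: overnight cultures diluted 1:1,000 in tryptone (staphylococci) or Todd Hewitt (S. pyogenes) medium with or without 20% FBS, compound added, OD490 followed at 37 °C. MIC: bacteria diluted 10-fold in Mueller-Hinton, incubated overnight at 37 °C in 5% CO2; lowest concentration without visible growth.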

In another test the test system is Streptococcus pneumoniae. The test is described as follows: MIC determination, S. pneumoniae. Format: cell-based. The conditions noted are these: Streptococcus pneumoniae; S. pneumoniae, serum −; read-out: MIC. The method, then:
Streptococcus pneumoniae strains were grown to mid-log phase (OD620 of 0.3) and stored in 15% glycerol at […] till further use. Minimal inhibitory concentration (MIC) of antibiotics was determined according to standard procedures. Bacteria were diluted 10-fold in Mueller-Hinton medium (BD, Sparks, Md.) and added to 96-well sterile ELISA plates (150 μl per well). The compounds to be tested were diluted in the medium without serum and added to the bacteria (150 μl per well). Plates were incubated overnight at 37° C. in 5% CO2. The MIC was defined as the lowest concentration of compound at which no growth was visible with the naked eye.

Test [3] concerns Staphylococcus epidermidis. The test is described as follows: Bacterial growth assay and MIC determination, S. epidermidis. Format: cell-based. The conditions noted are these: Staphylococcus epidermidis. In a few lines: as §1
Test [4] deals with Plasmodium berghei strain 676c11 (PbGFP-Luc). The test is described as follows: In vivo rodent malaria model. The conditions noted are these: female Wistar rats, 100 mg/kg orally three times a day, day 5-8. An excerpt:
Female mice (C57 Black 6, 9-10 weeks of age at the start of the experiment) and female rats (Wistar, 150-200 grams at the beginning of the experiment) were housed under standard conditions and experiments were approved by the institutional ethical committee on animal care and experimentation of Radboud University Medical Centre (Nijmegen).
To test our compounds in an in vivo malaria model we used a well described rodent malaria model (Zuckerman and Yoeli, J Infect Dis. 94, 225-36). First, donor mice were infected by 0.2 ml cryopreserved infected blood stocks containing the transgenic Plasmodium berghei strain 676c11 (PbGFP-Luc). After four days the mice were sacrificed and their blood was collected. The parasitemia in the blood from the mice was calculated as percentage of infected red blood cells (RBC) by Giemsa-stained blood smears. Infected blood was diluted to 5×10^7 parasites per ml and 0.2 ml was i.p. injected in rats (inoculation of 10′ parasites per rat). Treatment with chloroquine (6 mg/kg), CXP18.6-017 (100 mg/kg) and CXP18.6-052 (100 mg/kg) started 5 days post inoculation and where given orally three times a day until day eight. From day 5 blood samples were collected and parasitemia was determined by analysis of Giemsa-stained blood smears. The infection and treatment regimes were well tolerated by the animals.

Where [5] appears, read: 24 hrs pre-incubation, read-out: IC50 on the average luciferase intensity.
[6] abbreviates: read-out: IC50 on parasite prevalence (percentage of infected mosquitoes).
Setting [7] is: Table 1, most sensitive species S. epidermidis (SE), read-out: MIC (μg/ml) for most sensitive bacterial species.

Broadly, the IC50 is the point on the concentration scale where inhibition reaches its midpoint. For the compound `Cc1ccc(CCC(=O)NCCNC(=O)[C@H](O)C(C)(C)CO)cc1` [CXP18.6-026], the MIC in test [1] (tested for SA, SE, SP and SPn) is over 32 µg/mL. For the same compound, the IC50 in test [2] (setting [5]) came to 107 nM; in test [2] (setting [6]), 370 nM.

On to `CC(C)(CO)[C@@H](O)C(=O)NCCNC(=O)CCc1ccccc1F` [CXP18.6-017], for which the MIC in the test with Staphylococcus aureus (S. aureus, serum −, read-out: MIC) was 2 µg/mL (≈ 5.88 µM); in the test with Staphylococcus aureus (Table 1, most sensitive species S. aureus (SA), read-out: MIC (μg/ml) for most sensitive bacterial species), 2 µg/mL (≈ 5.88 µM); in the test on Streptococcus pyogenes, 8 µg/mL (≈ 23.5 µM); with Streptococcus pneumoniae, over 32 µg/mL; in test [3] (S. epidermidis, serum −, read-out: MIC) it was 32 µg/mL (≈ 94 µM); in test [3] (setting [7]) it was 2 µg/mL (≈ 5.88 µM). Further, the parasitemia entry in test [4] is listed as “reduced parasitemia with similar kinetics as found for chloroquine”. In addition, the “inhibitory effect in the indirect mode compared with the direct mode” value in test [2] (gametocytes pre-exposed prior to mosquito feeding) was “stronger”. Moreover, in test [2] (in comparison with the DMSO control), the “luciferase intensity in the direct mode of the assay” value is on record as “reduced luciferase intensity”. For the same compound, the IC50 stood at 20 nM in test [2] (setting [5]) and 178 nM in test [2] (setting [6]).

For `CC(C)(CO)[C@@H](O)C(=O)NCCNC(=O)CCc1cccnc1` [CXP18.6-052], the MIC in test [1] (Streptococcus pneumoniae, marked *: not tested for S. pneumoniae) is over 32 µg/mL. Besides, the parasitemia result in test [4] is given as “significant, albeit partial, reduction of parasitemia”.

Consider `CC(C)(CO)[C@@H](O)C(=O)NCCNC(=O)CCc1ccccc1` [CXP18.6-006], for which the MIC in test [3] (setting [7]) came out at 16 µg/mL (≈ 49.6 µM).
